# Patent US12636371B2, “Chemically coupled transporter for low-hydrophobicity bioactive drugs into the central nervous system” (Skybio LLC, priority 2021, dated 2026)
# What was measured:
# Format in all cases: cell-based
# E. coli DH5α = assay: Antibiotic activity by disc diffusion assay (MIC); conditions: disc diffusion, two-fold serial dilutions from 2 mg/ml, LB solid medium, overnight 37° C.
# Method: In order to examine the antibiotic activity of the compounds synthesized in Example 1, an assay was performed using E. coli DH5α (Gram(−)), as a sensitive, indicator strain.
# The antibacterial activities of test compounds were evaluated using the disc diffusion method (Kavanagh, F. Dilution methods of antibiotic assays in Analytical Microbiology. 1963; Pomares M F, Vincent P A, Farías R N, Salomón R A. Protective action of ppGpp in microcin J25-sensitive strains. J Bacteriol. 2008-190:4328-34). Briefly, filter-paper discs impregnated with 10 μl of two-fold serial dilutions of the test compounds, and were placed onto LB solid medium Petri dishes. Then, aliquots (50 μl) of an E. coli DH5α culture in stationary phase were mixed with 3 ml of top agar (0.7% agar) and overlaid onto the plates. After overnight incubation at 37° C., the plates were examined for different degrees of inhibition. Inhibition degrees produced by the test compound are expressed as Minimum Inhibitory Concentrations (MICs), defined as the lowest concentration of a compound that inhibit visible growth of bacteria. Each test was performed in duplicate vs. the reference compound Doxycycline.
# SH-SY5Y cells [1] = assay: MTT cytotoxicity assay in neuroblastoma SH-SY5Y cells; conditions: 1, 10 and 20 μM, 24 h
# Method: The impact of Pegasus (D9) on cellular viability was studied in SH-SY5Y neuroblastoma cell lines using the colorimetric Thiazolyl Blue Tetrazolium […] (MTT) metabolic activity assay (Mosmann T. Rapid colorimetric assay for cellular growth and survival: application to proliferation and cytotoxicity assays. J Immunol Methods 1983; 65(1-2): 55-63), which reports viable cell number based on mitochondrial activity.
# SH-SY5Y cells were seeded in 96-well plates at 15,000 cells/well with 100 μl of DMEM supplemented with 10% Fetal Bovine Serum (FBS) and 1% Antibiotics/Antimycotics, and incubated for 24 h at 37° C. and 5% CO2. Afterwards, cells were treated with a 25 μl aliquot of a D9 solution 5 μM, 50 μM or 100 μM (final concentration in well 1 μM, 10 μM and 20 μM, respectively) and incubated for 24 h. To determine cell viability, the MTT assay was used as previously described by Mosmann (1983). All experiments were performed in sextuplicate, and the relative cell viability (%) was expressed as a percentage relative to the untreated control condition.
# SH-SY5Y cells [2] = assay: CellROX assay of intracellular reactive oxygen species induced by ASf; conditions: 24 h
# Method: In order to characterize the antioxidant properties of D9, its protective action on the AS-induced production of reactive oxygen species (ROS) in a cellular model was assessed. For this, SH-SY5Y cells were treated with fibrils of AS (ASf) (AS incubated 120 h at 37° C. and 600 rpm), and the reactive oxygen species produced were examined using the CellROX® Orange Reagent (Invitrogen), which undergoes oxidation by ROS to form a stable fluorescent compound.
# In addition, cells were also treated with doxycycline 10 μM+7 μM ASf (ASf+Doxy) as a positive control, and 10 μM doxycycline alone (Doxy). All conditions were incubated 24 h at 37° C. and 5% CO2. […] Fluorescent images of randomly chosen fields were acquired with identical acquisition parameters using a Zeiss Axio Vert.A1 inverted fluorescence microscope.
# [3] = tested on: HEK293/Cytochrome C-tGFP cell line; assay: Apoptosis assay, Cytochrome C-tGFP localization by confocal microscopy; conditions: 200 μM, 24 h
# Description: Identification of genes linked to familiar forms of PD have uncovered many molecular pathways involved in neurodegeneration. One of such genes is PTEN-induced kinase 1 (PINK1), a mitochondrial serine/threonine-protein kinase that protects cells from stress-induced mitochondrial dysfunction. […] In fact, PINK1 is the second most frequent causative gene in early-onset PD, where mutations in this gene cause an autosomal recessive form of the disease. Frequent missense or truncating mutations of PINK1 are implicated in the pathogenesis of PARK6 (familial type 6 of PD). […] Therefore, the release of Cytochrome C from damaged mitochondria is considered a central event in apoptotic signaling. To characterize the ability of Pegasus (D9) to induce mitochondrial damage and apoptosis, as assayed by the release of Cytochrome C from mitochondria, a transgenic Cytochrome C-tGFP HEK293 cell line was used (INNOPROT #P30801) (Goldstein J C, Muñoz-Pinedo C, Ricci J E, et al. Cytochrome C is released in a single step during apoptosis. Cell Death Differ 2005; 12(5): 453-62).
# The effect of Pegasus on the localization and distribution of mitochondrial Cytochrome C-tGFP was visualized by confocal microscopy after incubation with 200 μM of D9 for 24 hs in the HEK293/Cytochrome C-tGFP cell line (INNOPROT #P30801). Images were acquired in a ZEISS LSM800 Confocal Microscope.
# D2 dopamine receptor = D2 dopamine receptor (Homo sapiens, UniProt P14416); assay: D2 receptor agonist assay, cAMP Nomad biosensor, U2OS_cAMPNmd_FP650_D2 cells; conditions: 24 h, 10 serial 1:3 dilutions from 30 μM, triplicate; read-out: EC50, D2 receptor activation
# Method: HEK_cAMPNmd_FP650_D1 and U2OS_cAMPNmd_FP650_D2 cells were seeded at a density of 30.000 and 20.000 cells/well, respectively, in 96-well plates. Cells were maintained in DMEM or DMEM-F12 medium supplemented with 10% FBS during 24 h at 37° C. in a humidified 5% CO2 atmosphere.
# Cells were then incubated for 24 h.
# To detect Nomad biosensor activation, the assay medium was removed and replaced by […] of DPBS with calcium and magnesium. […] In U2OS_cAMPNmd_FP650_D2 cells, images were acquired using the CellInsight CX7 HCS Platform, and the number of fluorescent vesicles per cell was quantified with the HCS Studio Cell Analysis Software.
# The effect of the compounds in the regulation of D1 or D2 receptors' activation was analyzed measuring the CAMP signaling using the Nomad biosensor-based assay.
# This same experiment was carried out in the U2OS_cAMPNmd_FP650_D2 cell line (FIG. 10). The effect of the compounds was analyzed quantifying the number of fluorescent vesicles in the cytoplasm of the cells using the HCS Studio Cell Analysis Software.
# Sequence of D2 dopamine receptor (P14416 whole entry): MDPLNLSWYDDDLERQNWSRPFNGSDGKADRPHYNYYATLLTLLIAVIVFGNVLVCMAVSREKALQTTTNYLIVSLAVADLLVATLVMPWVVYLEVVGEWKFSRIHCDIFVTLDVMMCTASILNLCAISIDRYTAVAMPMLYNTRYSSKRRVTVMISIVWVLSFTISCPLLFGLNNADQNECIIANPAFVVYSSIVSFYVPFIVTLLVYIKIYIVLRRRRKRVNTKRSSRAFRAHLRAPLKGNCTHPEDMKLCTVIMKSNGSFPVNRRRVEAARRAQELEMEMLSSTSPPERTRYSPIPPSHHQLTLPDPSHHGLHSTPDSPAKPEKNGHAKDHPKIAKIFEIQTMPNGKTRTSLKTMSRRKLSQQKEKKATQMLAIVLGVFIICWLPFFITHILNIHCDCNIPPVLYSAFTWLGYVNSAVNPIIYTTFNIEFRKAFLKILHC
structure (smiles),measurement,setting,value
C[C@H]1c2ccc(NC(=O)CCC(=O)NCCc3ccc(O)c(O)c3)c(O)c2C(=O)C2=C(O)[C@]3(O)C(=O)C(C(N)=O)=C(O)CC3[C@@H](O)C21 (stereo partly drawn) [Pegasus],MIC,E. coli DH5α,no antibiotic activity at the concentrations tested
same,"Cytotoxicity (relative cell viability, MTT)",SH-SY5Y cells [1],no cytotoxic effect
same,Intracellular ROS induced by ASf in presence of compound,SH-SY5Y cells [2]; 7 μM ASf + 10 μM compound,no increase in ROS production was observed
same,Intracellular ROS induced by compound alone,"SH-SY5Y cells [2]; human, 10 μM",neither the presence of D9 nor doxycycline induced intracellular ROS
same,Localization and distribution of Cytochrome C-tGFP (marker of apoptosis),[3],no differences in localization and distribution of Cytochrome C-tGFP
same,EC50,D2 dopamine receptor,11.3 µM
